These results are taken from patent publication US9988366B2, “Pesticidally active heterocyclic derivatives with sulphur containing substituents” (Syngenta Participations AG, priority 2014, dated 2018).

Holding throughout (assay type): in vivo
Assay [1] has as its system Myzus persicae (green peach aphid). The experiment in a line: Example B5: Myzus persicae feeding/residual contact activity, preventive, mixed population (sunflower leaf discs). The settings on record: foliar, 144 h, mixed population on sunflower leaf discs, 6 DAT. The method, then:
Example B5: Activity Against Myzus persicae (Green Peach Aphid)
(Feeding/Residual Contact Activity, Preventive), Mixed Population
Sunflower leaf discs were placed on agar in a 24-well microtiter plate and sprayed with test solutions. After drying, the leaf discs were infested with an aphid population of mixed ages. After an incubation period of 6 DAT, samples were checked for mortality and special effects (e.g. phytotoxicity).

In assay [2] the test system is Spodoptera littoralis (Egyptian cotton leaf worm). The experiment in a line: Example B2: Spodoptera littoralis systemic activity (lettuce on agar). The settings on record: 120 h, systemic via lettuce roots, 5 days after infestation, read-out: effect in at least one of the three categories (mortality, anti-feedancy, or growth inhibition). From the text:
Example B2: Activity Against Spodoptera littoralis (Egyptian Cotton Leaf Worm)
Test compounds were applied by pipette into 24 well plates and mixed with agar. Lettuce seeds were placed on the agar and the multi well plate is closed by another plate which contains also agar. After 7 days the roots have absorbed the compound and the lettuce has grown into the lid plate. The lettuce leaves were now cut off into the lid plate. Spodoptera eggs were pipetted through a plastic stencil on a humid gel blotting paper and the plate closed with it. The samples are checked for mortality, repellent effect, feeding behavior, and growth regulation 5 days after infestation.

The test system of assay [3] is Tetranychus urticae (two-spotted spider mite). The experiment in a line: Example B10: Tetranychus urticae, bean leaf disc spray test. The note with it: foliar, 192 h. Here is the method: Example B10: Activity Against Tetranychus urticae (Two-Spotted Spider Mite)
Bean leaf discs on agar in 24-well microtiter plates were sprayed with aqueous test solutions prepared from 10′000 ppm DMSO stock solutions. After drying the leaf discs were infested with a mite population of mixed ages. The samples were assessed for mortality on mixed population (mobile stages) 8 days after infestation.

Assay [4] relates to Spodoptera littoralis (Egyptian cotton leaf worm). Nature of the assay: Example B1: Spodoptera littoralis larvicide, feeding/residual contact activity, preventive (cotton leaf discs). The note with it: foliar, 72 h, L1 larvae on sprayed cotton leaf discs, 3 days after treatment, read-out: effect in at least one of the three categories (mortality, anti-feedancy, or growth inhibition). The text has this:
Example B1: Activity Against Spodoptera littoralis (Egyptian Cotton Leaf Worm)
(§1) (Larvicide, Feeding/Residual Contact Activity, Preventive)
Cotton leaf discs were placed on agar in a 24-well microtiter plate and sprayed with test solutions. After drying, the leaf discs were infested with five L1 larvae. The samples were checked for mortality, repellent effect, feeding behaviour, and growth regulation 3 days after treatment (DAT). Control of Spodoptera littoralis by a test sample is when at least one of mortality, anti-feedant effect, and growth inhibition is higher than an untreated sample.

Assay [5] has as its system Diabrotica balteata (corn root worm). The experiment in a line: Example B4: Diabrotica balteata larvae L2 on maize sprouts, feeding/contact, preventative. The note with it: 120 h, 5 days, read-out: activity (larval mortality and growth regulation). The method, then:
Example B4: Activity Against Diabrotica balteata (Corn Root Worm)
(Larvae L2 on Maize Sprouts, Feeding/Contact, Preventative)
Maize sprouts, placed on an agar layer in 24 well micro titer plates were treated with test solutions by spraying. After drying, the MTPs were infested with L2 larvae (6-10 per well). After an incubation period of 5 days, samples were checked for larval mortality and growth regulation.

For assay [6], the system named is Euschistus heros (neotropical brown stink bug). Nature of the assay: Example B8: Euschistus heros, soybean leaf spray test. The settings on record: 120 h, N-2 nymphs on soybean leaf, 5 days after infestation. The method, then: Example B8: Activity Against Euschistus heros (Neotropical Brown Stink Bug)
Soybean leaf on agar in 24-well microtiter plates were sprayed with aqueous test solutions prepared from 10,000 ppm DMSO stock solutions. After drying the leaf were infested with N-2 nymphs. The samples were assessed for mortality 5 days after infestation.

The subject of assay [7] is Bemisia tabaci (cotton white fly). The experiment in a line: Example B7: Bemisia tabaci adulticide contact activity, preventative (cotton leaf discs). The note with it: foliar, 168 h, adult white flies on cotton leaf discs, 7 DAT. Here is the method: Example B7: Activity Against Bemisia tabaci (Cotton White Fly)
(Adulticide Contact Activity, Preventative), Adult
Cotton leaf discs were placed on agar in a 24-well microtiter plate and sprayed with test solutions. After drying, the leaf discs were infested with adult white flies. After an incubation period of 7 DAT, samples were checked for mortality and special effects (e.g. phytotoxicity).

Assay [8] relates to Plutella xylostella (diamond back moth). The experiment in a line: Example B3: Plutella xylostella larvicide, feeding/residual contact activity, preventive (artificial diet). The settings on record: 120 h, L2 larvae on artificial diet, 5 days, read-out: activity (larval mortality, antifeedant and growth regulation). The method, then:
Example B3: Activity Against Plutella xylostella (Diamond Back Moth)
as §1
24-well microtiter plate (MTP) with artificial diet was treated with test solutions by pipetting. After drying, the MTPs were infested with L2 larvae (10-15 per well). After an incubation period of 5 days, samples were checked for larval mortality, antifeedant and growth regulation.

Assay [9] deals with Myzus persicae (green peach aphid). Nature of the assay: Example B9: Myzus persicae systemic/feeding activity, curative, mixed population (pea seedling roots). The note with it: 144 h, pea seedling roots in test solution, 6 days after introduction. From the text:
Example B9: Activity Against Myzus persicae (Green Peach Aphid)
(Systemic/Feeding Activity, Curative), Mixed Population
Roots of pea seedlings, infested with an aphid population of mixed ages, were placed directly in the test solutions. 6 days after introduction, samples were checked for mortality and special effects on the plant.

The test system is the same in assay [10]. Nature of the assay: Example B6: Myzus persicae feeding activity sachet test, mixed population. The note with it: 120 h, sucrose solution, 5 days after infestation. The text has this: Example B6: Activity Against Myzus persicae (Green Peach Aphid)
(Feeding Activity Sachet Test), Mixed Population
Test compounds were applied by pipette into 24 well plates and mixed with Sucrose solution. The plates were closed with a stretched Parafilm. A plastic stencil with 24 holes is placed onto the plate and infested pea seedlings were placed directly on the Parafilm. The infested plate is closed with a gel blotting paper and another plastic stencil and then turned upside down. 5 days after infestation the samples were checked on mortality. Application rate: 12.5 ppm.

Bounds are passed on as bounds.

Consider `CCS(=O)(=O)c1cc(C(F)(F)F)cnc1-c1ncc(-c2cc(C(F)(F)F)ccn2)n1C` [Compound P3], for which the mortality at 400 ppm in [1] is above 80%; in assay [3], at least 80%; in assay [5] it was above 80%. In addition, the percent control (mortality, anti-feedancy or growth inhibition) at 12.5 ppm in [2] was at least 80%. The percent control (mortality, anti-feedancy or growth inhibition) at 400 ppm in [4] was at least 80%.
As to `CCS(=O)(=O)c1cc(C(F)(F)F)cnc1-c1ncc(-c2ccc(C(F)(F)F)nc2)n1C` [Compound P4], the mortality at 400 ppm in [6], in [1], in assay [7], in [8] and in assay [5] was above 80% throughout. Moreover, in assay [2], the percent control (mortality, anti-feedancy or growth inhibition) at 12.5 ppm is at least 80%. For the same molecule, in [4], the percent control (mortality, anti-feedancy or growth inhibition) at 400 ppm was at least 80%. The molecule further yielded a mortality at 24 ppm in assay [9] of at least 80%.
As to `CCS(=O)(=O)c1cc(C(F)(F)F)cnc1-c1ncc(-c2ccnc(C(F)(F)F)c2)n1C` [Compound P6], the mortality at 400 ppm in [1], in assay [7], in [8] and in assay [5] was above 80% in each case. Also, the percent control (mortality, anti-feedancy or growth inhibition) at 400 ppm in [4] is at least 80%.
With `CCS(=O)(=O)c1cc(C(F)(F)F)cnc1-c1ncc(-c2cccc(C(F)(F)F)n2)n1C` [Compound P8], the mortality at 400 ppm in [6] and in assay [1] was above 80% throughout. In assay [4], the percent control (mortality, anti-feedancy or growth inhibition) at 400 ppm was at least 80%.
Turning to `CCS(=O)(=O)c1cc(C(F)(F)F)ccc1-c1ncc(-c2ccc(C(F)(F)F)cc2)n1C` [Compound P9], the mortality at 400 ppm in assay [1], in assay [7], in [8] and in [5] was above 80% in each case. The percent control (mortality, anti-feedancy or growth inhibition) at 12.5 ppm in [2] is at least 80%. Besides, the percent control (mortality, anti-feedancy or growth inhibition) at 400 ppm in assay [4] was at least 80%.
Consider `CCS(=O)(=O)c1cc(C(F)(F)F)ccc1-c1ncc(-c2ccc(C(F)(F)F)nc2)n1C` [Compound P10], for which the mortality at 400 ppm in assay [1], in assay [7], in assay [8] and in assay [5] was above 80% each time. Also, the percent control (mortality, anti-feedancy or growth inhibition) at 12.5 ppm in assay [2] is at least 80%. Moreover, the percent control (mortality, anti-feedancy or growth inhibition) at 400 ppm in [4] was at least 80%.
Regarding `CCS(=O)(=O)c1cc(C(F)(F)F)cnc1-c1ncc(-c2ccc(S(=O)(=O)C(F)(F)F)cc2)n1C` [Compound P12], the percent control (mortality, anti-feedancy or growth inhibition) at 12.5 ppm in assay [2] was at least 80%. In addition, the mortality at 400 ppm in [8] and in assay [5] was above 80% each time. Further, in assay [4], the percent control (mortality, anti-feedancy or growth inhibition) at 400 ppm was at least 80%.
As for `CCS(=O)(=O)c1cc(C(F)(F)F)cnc1-c1ncc(-c2ccc(SC(F)(F)F)cc2)n1C` [Compound P15], the mortality at 400 ppm in [6], in [1], in assay [7], in assay [8] and in assay [5] was above 80% each time. Further, the percent control (mortality, anti-feedancy or growth inhibition) at 12.5 ppm in assay [2] was at least 80%. Besides, the percent control (mortality, anti-feedancy or growth inhibition) at 400 ppm in [4] was at least 80%.
Regarding `CCS(=O)(=O)c1cc(C(F)(F)F)cnc1-c1ncc(-c2ccc(Cl)c(F)c2)n1C` [Compound P25], the mortality at 400 ppm in assay [6], in [8] and in assay [5] was above 80% throughout. In [10], the mortality at 12.5 ppm was at least 80%. Also, in [4], the percent control (mortality, anti-feedancy or growth inhibition) at 400 ppm is at least 80%.
On to `CCS(=O)(=O)c1cc(C(F)(F)F)cnc1-c1ncc(-c2ccc(Cl)c(C(F)(F)F)c2)n1C` [Compound P38], for which the mortality at 400 ppm in assay [6], in assay [8] and in assay [5] was above 80% in each case. The mortality at 12.5 ppm in assay [10] is at least 80%. In addition, the percent control (mortality, anti-feedancy or growth inhibition) at 400 ppm in assay [4] is at least 80%.
Molecule `CCS(=O)(=O)c1cc(C(F)(F)F)cnc1-c1ncc(-c2ccnc(F)c2)n1C` [Compound P39] displayed a mortality at 12.5 ppm in [10] of at least 80%. Also, the mortality at 400 ppm in [8] and in assay [5] was above 80% in each case. Further, the percent control (mortality, anti-feedancy or growth inhibition) at 400 ppm in assay [4] was at least 80%. In [9], this molecule showed a mortality at 24 ppm of at least 80%.
In the case of `CCS(=O)(=O)c1cc(C(F)(F)F)cnc1-c1ncc(-c2ccc(OC(F)(F)F)cc2)n1C` [Compound P40], the mortality at 400 ppm in assay [6], in assay [8] and in assay [5] was above 80% each time. In assay [10], the mortality at 12.5 ppm is at least 80%. Further, the percent control (mortality, anti-feedancy or growth inhibition) at 400 ppm in assay [4] was at least 80%.
`CCS(=O)(=O)c1cc(C(F)(F)F)cnc1-c1ncc(-c2cnc(C(F)(F)F)nc2)n1C` [Compound P50]: the mortality at 12.5 ppm in assay [10] is at least 80%. For the same molecule, the mortality at 400 ppm in assay [8] and in assay [5] was above 80% throughout. Moreover, in [4], the percent control (mortality, anti-feedancy or growth inhibition) at 400 ppm is at least 80%. Moreover, in assay [9], the mortality at 24 ppm is at least 80%.
As for `CCS(=O)(=O)c1cc(C(F)(F)F)cnc1-c1ncc(-c2ccc(F)nc2)n1C` [Compound P54], the mortality at 12.5 ppm in assay [10] was at least 80%. Also, the mortality at 400 ppm in [8] and in [5] was above 80% in each case. Besides, the percent control (mortality, anti-feedancy or growth inhibition) at 400 ppm in assay [4] is at least 80%. This molecule came in with a mortality at 24 ppm in assay [9] of at least 80%.

Usually mortality stands for the percentage killed.
